Data as given in patent US9624233B2, “Compounds for treating pruritic conditions” (priority 2015, dated 2017).

Legend:
Conditions in all cases: 2.5E−05M
D2S (h) = D2S (h) (Homo sapiens, UniProt P14416); assay: Abuse liability binding screen, D2S (h) (antagonist radioligand)
Experimental: (§1) Compound binding was calculated as a % inhibition of the binding of a radioactively labeled ligand specific for each target.

5-HT2B (h) = 5-HT2B (h) (Homo sapiens, UniProt P41595); assay: Abuse liability binding screen, 5-HT2B (h) (agonist radioligand)
Chain of 5-HT2B (h) (P41595 whole entry): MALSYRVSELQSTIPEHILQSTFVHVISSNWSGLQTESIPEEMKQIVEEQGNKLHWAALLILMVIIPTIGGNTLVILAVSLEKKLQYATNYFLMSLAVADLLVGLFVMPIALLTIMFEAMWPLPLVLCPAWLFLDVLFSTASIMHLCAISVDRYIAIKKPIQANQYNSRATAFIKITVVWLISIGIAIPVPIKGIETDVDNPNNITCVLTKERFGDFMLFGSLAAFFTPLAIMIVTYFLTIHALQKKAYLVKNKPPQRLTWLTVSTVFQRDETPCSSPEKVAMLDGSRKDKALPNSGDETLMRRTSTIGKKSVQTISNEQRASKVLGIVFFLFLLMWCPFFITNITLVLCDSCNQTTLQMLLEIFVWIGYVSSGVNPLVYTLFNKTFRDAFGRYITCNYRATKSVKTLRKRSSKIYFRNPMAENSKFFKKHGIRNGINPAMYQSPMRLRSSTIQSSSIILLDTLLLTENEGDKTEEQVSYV
Experimental: (§2) […]. The abuse liability screen included 44 targets (receptors, transporters, on gated-channel systems) related to the dopamine, norepinephrine, serotonin, gamma-aminobutyric acid (GABA), acetylcholine, N-methyl-D-aspartate (NMDA) cannabinoid and opioid neurotransmitter systems as recommended in FDA Draft guidance on Assessment of Abuse Potential of Drugs, January 2010.
as §1
(§3) Results showing an inhibition or stimulation higher than 50% are considered to represent significant effects of the test compounds.

CB2 (h) = CB2 (h) (Homo sapiens, UniProt P34972); assay: Abuse liability binding screen, CB2 (h) (agonist radioligand)
Chain of CB2 (h) (P34972 whole entry): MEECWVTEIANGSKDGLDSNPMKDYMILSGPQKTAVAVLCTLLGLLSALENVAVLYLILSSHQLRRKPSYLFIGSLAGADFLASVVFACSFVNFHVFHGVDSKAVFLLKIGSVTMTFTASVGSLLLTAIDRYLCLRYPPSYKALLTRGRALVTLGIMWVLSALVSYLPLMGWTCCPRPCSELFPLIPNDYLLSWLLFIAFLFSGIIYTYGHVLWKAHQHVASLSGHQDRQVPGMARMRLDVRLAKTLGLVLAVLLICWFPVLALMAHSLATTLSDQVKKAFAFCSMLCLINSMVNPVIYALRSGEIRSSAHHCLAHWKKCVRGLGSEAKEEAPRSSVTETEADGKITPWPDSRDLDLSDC
Experimental: as §2, §1, §3

[1] = test system: Cl^− channel (GABA-gated); assay: Abuse liability binding screen, Cl− channel (GABA-gated) (antagonist radioligand)
Experimental: as §1

[2] = molecular target: Norepinephrine transporter (h) (Homo sapiens, UniProt P23975); assay: Abuse liability binding screen, Norepinephrine transporter (h) (antagonist radioligand)
Chain of Norepinephrine transporter (h) (P23975 whole entry): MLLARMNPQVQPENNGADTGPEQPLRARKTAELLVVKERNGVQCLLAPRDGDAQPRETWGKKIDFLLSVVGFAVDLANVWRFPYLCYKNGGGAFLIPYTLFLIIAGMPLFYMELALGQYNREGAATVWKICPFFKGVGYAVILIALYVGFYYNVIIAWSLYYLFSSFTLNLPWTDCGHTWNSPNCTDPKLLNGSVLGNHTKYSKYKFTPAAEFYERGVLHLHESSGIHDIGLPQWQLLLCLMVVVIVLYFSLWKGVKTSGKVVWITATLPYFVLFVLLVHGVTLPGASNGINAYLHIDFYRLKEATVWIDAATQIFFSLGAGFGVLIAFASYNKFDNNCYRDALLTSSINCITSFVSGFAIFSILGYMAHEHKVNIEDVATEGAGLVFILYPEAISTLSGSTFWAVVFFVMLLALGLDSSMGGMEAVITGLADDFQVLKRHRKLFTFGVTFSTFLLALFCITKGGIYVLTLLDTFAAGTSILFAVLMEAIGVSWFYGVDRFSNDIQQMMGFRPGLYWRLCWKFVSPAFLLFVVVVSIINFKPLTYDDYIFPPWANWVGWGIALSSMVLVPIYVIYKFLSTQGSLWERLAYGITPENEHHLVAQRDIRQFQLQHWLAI
Experimental: as §2, §1, §3

CB1 (h) = CB1 (h) (Homo sapiens, UniProt P21554); assay: Abuse liability binding screen, CB1 (h) (agonist radioligand)
Chain of CB1 (h) (P21554 whole entry): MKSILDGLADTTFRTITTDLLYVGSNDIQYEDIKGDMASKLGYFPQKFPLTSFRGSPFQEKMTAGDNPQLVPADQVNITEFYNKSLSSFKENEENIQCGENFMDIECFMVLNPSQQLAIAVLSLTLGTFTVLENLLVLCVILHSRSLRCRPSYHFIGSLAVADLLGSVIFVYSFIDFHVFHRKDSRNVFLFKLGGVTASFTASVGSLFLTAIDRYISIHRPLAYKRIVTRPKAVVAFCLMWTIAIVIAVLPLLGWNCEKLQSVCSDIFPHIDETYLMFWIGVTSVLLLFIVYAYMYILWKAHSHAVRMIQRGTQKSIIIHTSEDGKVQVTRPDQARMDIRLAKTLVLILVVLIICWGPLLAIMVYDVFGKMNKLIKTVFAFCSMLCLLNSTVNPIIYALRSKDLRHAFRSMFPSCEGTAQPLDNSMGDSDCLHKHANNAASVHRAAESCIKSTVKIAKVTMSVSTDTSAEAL
Experimental: as §2, §1, §3

OX1 (h) = molecular target: T1, OX1 (h) (Homo sapiens, UniProt O43613); assay: Abuse liability binding screen, OX1 (h) (agonist radioligand)
T1 sequence (O43613 1-425): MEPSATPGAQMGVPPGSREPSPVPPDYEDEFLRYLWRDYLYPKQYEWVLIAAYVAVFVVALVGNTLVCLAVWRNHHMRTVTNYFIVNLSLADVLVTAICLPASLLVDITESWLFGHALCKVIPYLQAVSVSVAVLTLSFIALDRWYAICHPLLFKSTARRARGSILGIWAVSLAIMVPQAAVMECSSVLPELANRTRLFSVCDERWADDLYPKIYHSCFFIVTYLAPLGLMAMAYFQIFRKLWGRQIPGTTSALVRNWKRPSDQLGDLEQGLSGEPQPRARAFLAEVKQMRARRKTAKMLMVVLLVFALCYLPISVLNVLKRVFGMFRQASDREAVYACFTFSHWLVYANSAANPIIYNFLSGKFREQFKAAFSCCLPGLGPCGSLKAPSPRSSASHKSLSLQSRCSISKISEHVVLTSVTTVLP
Experimental: as §1

α2C (h) = molecular target: T2, α2C (h) (Homo sapiens, UniProt P18825); assay: Abuse liability binding screen, α2C (h) (antagonist radioligand)
T2 sequence (P18825 1-462): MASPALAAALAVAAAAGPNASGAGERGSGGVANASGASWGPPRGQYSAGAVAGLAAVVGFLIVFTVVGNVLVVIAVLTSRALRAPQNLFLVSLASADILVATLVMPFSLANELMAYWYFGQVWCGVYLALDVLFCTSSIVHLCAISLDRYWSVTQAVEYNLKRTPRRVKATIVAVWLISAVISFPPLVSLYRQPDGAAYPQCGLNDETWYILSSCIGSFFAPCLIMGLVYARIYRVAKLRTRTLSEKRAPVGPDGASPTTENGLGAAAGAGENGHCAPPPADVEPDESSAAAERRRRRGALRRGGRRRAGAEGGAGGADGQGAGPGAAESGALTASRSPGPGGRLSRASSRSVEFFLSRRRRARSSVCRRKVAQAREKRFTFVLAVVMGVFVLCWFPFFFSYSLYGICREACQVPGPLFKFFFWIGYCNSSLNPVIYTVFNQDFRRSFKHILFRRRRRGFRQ
Experimental: as §2, §1, §3

M2 (h) = molecular target: T3, M2 (h) (Homo sapiens, UniProt P08172); assay: Abuse liability binding screen, M2 (h) (antagonist radioligand)
T3 sequence (P08172 1-466): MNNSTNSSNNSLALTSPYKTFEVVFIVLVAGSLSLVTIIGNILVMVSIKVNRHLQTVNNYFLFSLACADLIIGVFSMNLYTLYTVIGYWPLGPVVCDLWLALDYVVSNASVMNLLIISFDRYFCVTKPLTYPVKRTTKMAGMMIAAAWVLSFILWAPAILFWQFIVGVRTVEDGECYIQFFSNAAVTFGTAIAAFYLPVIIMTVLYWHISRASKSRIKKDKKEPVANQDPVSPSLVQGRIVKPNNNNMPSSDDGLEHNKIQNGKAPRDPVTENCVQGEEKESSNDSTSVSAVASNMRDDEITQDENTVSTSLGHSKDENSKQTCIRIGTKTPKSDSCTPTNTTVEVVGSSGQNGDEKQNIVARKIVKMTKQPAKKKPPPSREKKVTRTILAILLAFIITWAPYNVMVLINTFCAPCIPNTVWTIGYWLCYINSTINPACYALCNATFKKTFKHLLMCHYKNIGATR
Experimental: as §2, §1, §3

Dopamine transporter (h) = Dopamine transporter (h) (Homo sapiens, UniProt Q01959); assay: Abuse liability binding screen, Dopamine transporter (h) (antagonist radioligand)
Chain of Dopamine transporter (h) (Q01959 whole entry): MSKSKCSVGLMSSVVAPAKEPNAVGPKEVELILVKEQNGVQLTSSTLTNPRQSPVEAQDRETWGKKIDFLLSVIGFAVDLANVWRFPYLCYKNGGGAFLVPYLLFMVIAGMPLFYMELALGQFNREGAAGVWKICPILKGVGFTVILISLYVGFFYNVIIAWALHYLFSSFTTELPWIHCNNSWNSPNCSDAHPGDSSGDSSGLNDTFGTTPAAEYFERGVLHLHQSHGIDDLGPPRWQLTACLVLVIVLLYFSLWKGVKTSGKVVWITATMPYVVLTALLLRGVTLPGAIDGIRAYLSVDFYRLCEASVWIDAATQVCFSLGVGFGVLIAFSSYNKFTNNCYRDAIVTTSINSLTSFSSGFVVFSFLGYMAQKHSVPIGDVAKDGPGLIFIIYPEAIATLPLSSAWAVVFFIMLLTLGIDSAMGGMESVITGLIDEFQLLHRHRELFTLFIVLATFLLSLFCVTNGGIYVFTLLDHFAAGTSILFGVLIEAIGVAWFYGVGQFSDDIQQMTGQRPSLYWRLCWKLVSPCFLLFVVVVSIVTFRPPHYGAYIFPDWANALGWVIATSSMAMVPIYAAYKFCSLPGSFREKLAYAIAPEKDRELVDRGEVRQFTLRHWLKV
Experimental: as §2, §1, §3

ER (non-selective) (h) = assay: Abuse liability binding screen, ER (non-selective) (h) (agonist radioligand); set-up: species or system human
Experimental: as §1

Chain of D2S (h) (P14416 1-414 isoform P14416-2): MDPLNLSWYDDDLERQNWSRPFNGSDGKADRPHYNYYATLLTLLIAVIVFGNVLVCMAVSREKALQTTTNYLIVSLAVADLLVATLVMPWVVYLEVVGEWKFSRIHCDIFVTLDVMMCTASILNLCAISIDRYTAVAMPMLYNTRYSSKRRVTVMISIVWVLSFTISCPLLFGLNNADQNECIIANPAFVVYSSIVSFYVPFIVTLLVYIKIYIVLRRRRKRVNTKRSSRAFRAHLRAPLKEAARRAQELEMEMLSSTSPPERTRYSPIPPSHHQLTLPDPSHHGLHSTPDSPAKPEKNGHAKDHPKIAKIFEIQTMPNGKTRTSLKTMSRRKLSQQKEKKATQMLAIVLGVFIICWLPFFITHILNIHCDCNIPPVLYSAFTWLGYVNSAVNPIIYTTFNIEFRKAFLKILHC

O=C(O)[C@H]1O[C@@H](Oc2ccc3c4c2O[C@H]2[C@@H](O)CC[C@@]5(O)[C@@H](C3)N(CC3CCC3)CC[C@]425)[C@H](O)[C@@H](O)[C@@H]1O [Compound M5, nalbuphine-3-beta-D-glucuronid]
% Inhibition of Control Specific Binding 1st (D2S (h)): −1.6% | % Inhibition of Control Specific Binding 2nd (D2S (h)): 7.2% | % Inhibition of Control Specific Binding Mean (D2S (h)): 2.8% | % Inhibition of Control Specific Binding 1st (5-HT2B (h)): −3.4% | % Inhibition of Control Specific Binding 2nd (5-HT2B (h)): 3.9% | % Inhibition of Control Specific Binding Mean (5-HT2B (h)): 0.2% | % Inhibition of Control Specific Binding 1st (CB2 (h)): −13.1% | % Inhibition of Control Specific Binding 2nd (CB2 (h)): −23.1% | % Inhibition of Control Specific Binding Mean (CB2 (h)): −18.1% | % Inhibition of Control Specific Binding 1st [1]: 3.3% | % Inhibition of Control Specific Binding 2nd [1]: −7.4% | % Inhibition of Control Specific Binding Mean [1]: −2.1% | % Inhibition of Control Specific Binding 1st [2]: −11.4% | % Inhibition of Control Specific Binding 2nd [2]: 3.2% | % Inhibition of Control Specific Binding Mean [2]: −4.1% | % Inhibition of Control Specific Binding 1st (CB1 (h)): −2.9% | % Inhibition of Control Specific Binding 2nd (CB1 (h)): 12.9% | % Inhibition of Control Specific Binding Mean (CB1 (h)): 5.0% | % Inhibition of Control Specific Binding 1st (OX1 (h)): 5.5% | % Inhibition of Control Specific Binding 2nd (OX1 (h)): −1.5% | % Inhibition of Control Specific Binding Mean (OX1 (h)): 2.0% | % Inhibition of Control Specific Binding 1st (α2C (h)): 12.1% | % Inhibition of Control Specific Binding 2nd (α2C (h)): 6.5% | % Inhibition of Control Specific Binding Mean (α2C (h)): 9.3% | % Inhibition of Control Specific Binding 1st (M2 (h)): −11.1% | % Inhibition of Control Specific Binding 2nd (M2 (h)): 7.6% | % Inhibition of Control Specific Binding Mean (M2 (h)): −1.8% | % Inhibition of Control Specific Binding 1st (Dopamine transporter (h)): −2.0% | % Inhibition of Control Specific Binding 2nd (Dopamine transporter (h)): 12.1% | % Inhibition of Control Specific Binding Mean (Dopamine transporter (h)): 5.1% | % Inhibition of Control Specific Binding 1st (ER (non-selective) (h)): 9.0% | % Inhibition of Control Specific Binding 2nd (ER (non-selective) (h)): 10.6% | % Inhibition of Control Specific Binding Mean (ER (non-selective) (h)): 9.8%
